This note sets out measurements from patent publication EP0127529A2, “Aminocyclic N-oxide derivatives, process for their preparation and their therapeutical use” (DELALANDE S.A., priority 1983, dated 1984).

In series [1] the test system is redressements à l'apomorphine. Put plainly: Antagonism of apomorphine-induced rearing (climbing) in mice. The format is in vivo. The note with it: souris, i.p. From the text:
Ces propriétés psychotropes ont été mises en évidence chez la souris, notamment par le test de l'antagonisme aux redressements à l'apomorphine réalisé d'après le protocole décrit par G. GOURET et Coll. dans J. Pharmacol. (Paris) (^1973), ^4, 341.

For a further series, the system named is souris. Put plainly: Acute toxicity in mice, intraperitoneal route. The format is in vivo. The note with it: i.p. The text has this: La toxicité aiguë des composés selon l'invention a également été étudiée chez la souris par voie intrapéritonéale. Le tableau II ci-après donne à titre d'exemple non limitatif les résultats obtenus avec certains des composés selon l'invention.

Each structure is given as a SMILES string.

For `COc1cccc(C(=O)NC2CC3CCC(C2)[N+]3([O-])Cc2ccccc2)c1OC` (stereo not shown) [compound 1, N-oxyde axial du (diméthoxy-2,3) benzoylamino-3 N-benzyl aza-8 bicyclo [3.2,1] octane], in series [1], the “Antagonisme aux redressements à l'apomorphine DE 50” value is listed as 2,2 mg/kg/i.p. Further, the “Toxicité (souris) DL 50” value with souris is listed as > 400 mg/kg/i.p.

As to `COc1cccc(C(=O)NC2CC3CCC(C2)[N+]3([O-])Cc2ccccc2)c1OC` (stereo not shown) [compound 2, N-oxyde équatorial du (diméthoxy-2,3) benzoylamino-3 N-benzyl aza-8 bicyclo[3.2.1] octane], the “Antagonisme aux redressements à l'apomorphine DE 50” value in series [1] was 0,27 mg/kg/i.p. In addition, the “Toxicité (souris) DL 50” value in the series on souris is listed as 400 mg/kg/i.p.
